According to ChEMBL document CHEMBL1129197, “A rapid synthesis of some 5-amino- nucleosides and nucleotides as potential antiviral compounds” (Bioorg Med Chem Lett, 1996):

Experiments:
[1] = Ratio of CC50 to EC50 against HIV-1/C8166 cells was evaluated; assay type: functional
C8166 [2] = experiment: Concentration which reduces the viability of uninfected C8166 cells by 50%; assay type: functional; conditions: Homo sapiens
C8166 [3] = experiment: Compound was evaluated for inhibitory activity against HIV-1 infected C8166 cells.; assay type: functional, cell-based; conditions: Homo sapiens

SMILES	Selectivity [1]	CC50 (C8166 [2]) [µM]	EC50 (C8166 [3]) [µM]
Cc1cn(C2CC(N=[N+]=[N-])C(CNP(=O)(OCC(Cl)(Cl)Cl)OCC(Cl)(Cl)Cl)O2)c(=O)[nH]c1=O (centres undefined)	3.3	100	30
Cc1cn2c(nc1=O)OC1CC2OC1CN1C(=O)c2ccccc2C1=O (centres undefined)	>2.5	> 1000	400
Cc1cn(C2CC(N=[N+]=[N-])C(CN3C(=O)c4ccccc4C3=O)O2)c(=O)[nH]c1=O (centres undefined)	10	1000	100
Cc1cn([C@H]2C[C@H](N=[N+]=[N-])[C@@H](CO)O2)c(=O)[nH]c1=O [ZIDOVUDINE]	62500	> 1000	
Cc1cn(C2CC(N=[N+]=[N-])C(CN)O2)c(=O)[nH]c1=O (centres undefined)	>25	> 1000	40
